Measured values as given in ChEMBL document CHEMBL3399920, “Microwave-assisted synthesis, characterization and cytotoxic studies of novel estrogen receptor α ligands towards human breast cancer cells” (Bioorg Med Chem Lett, 2015).

Columns and labels:
HepG2 = assay: Cytotoxicity against human HepG2 cells after 48 hrs by MTT assay; format: functional, cell-based; settings: HepG2, 48 h
MCF7 = assay: Cytotoxicity against human MCF7 cells after 48 hrs by MTT assay; format: functional, cell-based; settings: MCF7, 48 h
MDA-MB-231 = assay: Cytotoxicity against human MDA-MB-231 cells after 48 hrs by MTT assay; format: functional, cell-based; settings: MDA-MB-231, 48 h
[1] = Cytotoxicity against human MCF10A cells after 72 hrs by MTT assay; format: cell-based; settings: MCF-10A
BT-549 = assay: Cytotoxicity against human BT549 cells after 48 hrs by MTT assay; format: functional, cell-based; settings: BT-549, 48 h

## Cc1ccc2nc(-c3cc(O)ccc3O)ccc2c1
HepG2
  IC50: 19 µM
MCF7
  IC50: 28 µM

## Brc1ccc(-c2ccc3ccccc3n2)cc1
MDA-MB-231
  IC50: > 100 µM
[1]
  IC50: 60.3 µM
HepG2
  IC50: 9 µM
MCF7
  IC50: 12 µM
BT-549
  IC50: > 100 µM

## Cc1ccc2nc(-c3ccc(Cl)cc3Cl)ccc2c1
HepG2
  IC50: > 50 µM
MCF7
  IC50: > 50 µM

## Clc1ccc(-c2ccc3ccccc3n2)c(Cl)c1
MDA-MB-231
  IC50: > 100 µM
[1]
  IC50: > 100 µM
HepG2
  IC50: 31.6 µM
MCF7
  IC50: 25 µM
BT-549
  IC50: > 100 µM

## Cc1ccc2nc(-c3ccc(N)cc3)ccc2c1
HepG2
  IC50: 41 µM
MCF7
  IC50: 34 µM

## Oc1ccccc1-c1ccc2ccccc2n1
HepG2
  IC50: > 50 µM
MCF7
  IC50: > 50 µM

## Cc1ccc2nc(-c3cccc([N+](=O)[O-])c3)ccc2c1
MDA-MB-231
  IC50: > 100 µM
[1]
  IC50: > 100 µM
HepG2
  IC50: 37 µM
MCF7
  IC50: 23 µM
BT-549
  IC50: > 100 µM

## Cc1ccc2nc(-c3ccccc3Br)ccc2c1
HepG2
  IC50: > 50 µM
MCF7
  IC50: > 50 µM

## Nc1ccc(-c2ccc3ccc(Cl)cc3n2)cc1
MDA-MB-231
  IC50: > 100 µM
[1]
  IC50: > 100 µM
HepG2
  IC50: 11 µM
MCF7
  IC50: 6 µM
BT-549
  IC50: > 100 µM

## Cc1ccc2nc(-c3ccccc3)ccc2c1
HepG2
  IC50: > 50 µM
MCF7
  IC50: > 50 µM
